Results: US4404217A, “3-Indolyl alkylene amino propanols and cardiovascular compositions thereof” (C. M. Industries, priority 1979, dated 1983)
Where two headings read alike, the source gives them in different places.

Assays:
[1] = molecular target: T1, β1 receptor (Canis lupus familiaris, UniProt P79148); test: Displacement of 3H dihydroalprenolol, plasmic membranes of hearts of dogs; type: binding, dog
T1 construct: plasmic membranes of hearts of dogs (β1 receptor); from tissue; host or cells: dog heart plasma membranes
T1 sequence (P79148 whole entry): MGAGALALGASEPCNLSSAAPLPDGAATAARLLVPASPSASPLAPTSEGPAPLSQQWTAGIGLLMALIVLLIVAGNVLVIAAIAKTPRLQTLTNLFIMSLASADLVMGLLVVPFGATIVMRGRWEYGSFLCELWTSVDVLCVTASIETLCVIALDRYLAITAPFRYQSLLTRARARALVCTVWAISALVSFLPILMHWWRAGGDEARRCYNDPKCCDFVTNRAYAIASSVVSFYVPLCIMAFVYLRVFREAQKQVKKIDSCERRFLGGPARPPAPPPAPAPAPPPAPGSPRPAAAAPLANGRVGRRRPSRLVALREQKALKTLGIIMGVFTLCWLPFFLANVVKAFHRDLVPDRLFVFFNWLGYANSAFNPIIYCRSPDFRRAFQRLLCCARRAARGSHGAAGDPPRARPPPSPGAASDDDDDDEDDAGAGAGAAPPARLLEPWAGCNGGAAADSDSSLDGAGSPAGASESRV
Description: (§1) The binding tests are effected on suspensions of plasmic membranes coming from various organs. The suspensions of membranes are placed in incubation with the tritiated ligand and various concentrations of products to be tested. After incubation, each test is filtered on GFB(Whatman) filter, the filters are dried and introduced into counting flasks. The measurement of the radioactivity is assessed by scintillation in a liquid medium.
(§2) The tests were made on plasmic membranes of hearts of dogs (β1 receptor) and lungs of rats (β2 receptors), in the presence of ^3 H dihydroalprenolol 4×10^-9 M.

[2] = molecular target: T2, β adrenergic receptors (β2) (Canis lupus familiaris, UniProt P54833); test: Antagonism of the effects of isoprenaline, hypotension (β2), anaesthetized dog, IV; type: in vivo; conditions: read-out: ID50 ISOPRENALINE β2
T2 construct: The dog is anaesthetized using sodium pentobarbital; from tissue; host or cells: whole anaesthetized dog (vasculature)
T2 sequence (P54833 whole entry): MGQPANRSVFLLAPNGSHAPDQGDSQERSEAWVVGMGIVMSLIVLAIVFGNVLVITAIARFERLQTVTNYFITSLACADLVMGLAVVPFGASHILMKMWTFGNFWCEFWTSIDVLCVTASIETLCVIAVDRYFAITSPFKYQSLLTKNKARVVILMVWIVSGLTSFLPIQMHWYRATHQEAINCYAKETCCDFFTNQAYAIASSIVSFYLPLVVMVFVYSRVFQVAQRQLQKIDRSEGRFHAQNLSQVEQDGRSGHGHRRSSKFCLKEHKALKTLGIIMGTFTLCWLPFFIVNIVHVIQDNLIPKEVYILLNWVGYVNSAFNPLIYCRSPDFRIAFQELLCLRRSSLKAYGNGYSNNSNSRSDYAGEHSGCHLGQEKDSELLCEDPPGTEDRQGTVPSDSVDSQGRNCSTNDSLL
Description: (§3) The dog is anaesthetized using sodium pentobarbital, administered by the IV route at a dose of 30 mg/kg. A cannula placed in the saphenous vein allows the intra-venous injections of the products. The animal is submitted to intubation and is allowed to breathe spontaneously.
(§4) The cardiac frequency and the systemic arterial pressure are studied and the variations of these parameters are observed after intra-venous injection of the product to be tested. Each product is tested with increasing doses.
The antagonism of the products with respect to the β stimulant cardio-vascular effects of isoprenaline on the β adrenergic receptors has been sought. […] The last column indicates the cardioselectivity (β1 >β2) or a low cardioselectivity β1 ≥β2, or no cardioselectivity β1 <β2 and β1 =β2.

[3] = molecular target: T3, β2 receptors (Rattus norvegicus, UniProt P10608); test: Displacement of 3H dihydroalprenolol, plasmic membranes of lungs of rats; type: binding
T3 construct: lungs of rats (β2 receptors); from tissue; host or cells: rat lung plasma membranes
T3 sequence (P10608 whole entry): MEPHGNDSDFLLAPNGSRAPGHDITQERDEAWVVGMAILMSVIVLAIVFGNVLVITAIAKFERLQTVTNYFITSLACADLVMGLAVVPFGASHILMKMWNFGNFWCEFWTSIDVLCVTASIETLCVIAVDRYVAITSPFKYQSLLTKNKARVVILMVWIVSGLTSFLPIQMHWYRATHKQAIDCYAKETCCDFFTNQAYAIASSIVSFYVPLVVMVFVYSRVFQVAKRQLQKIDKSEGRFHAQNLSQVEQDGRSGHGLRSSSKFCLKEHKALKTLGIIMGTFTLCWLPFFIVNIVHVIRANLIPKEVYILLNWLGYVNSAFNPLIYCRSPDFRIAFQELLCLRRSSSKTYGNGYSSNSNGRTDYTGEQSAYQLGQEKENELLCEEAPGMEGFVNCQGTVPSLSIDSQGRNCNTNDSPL
Description: as §1, §2

[4] = test system: platelet aggregation; test: Anti-aggregating activity, BORN technique, plasma rich in platelets, ADP; type: cell-based, human; conditions: for IC50: Homo sapiens, Platelet, read-out: concentration for inhibiting by 50% the maximum rate of aggregation; for inhibition of the platelet response with respect to the ADP: human platelet-rich plasma
Description: The anti-aggregating activity of the CM 7743, 7744, 7824, 7854, 7859 and 7874 has been studied according to the BORN technique on plasma rich in platelets of human origin. ADP has been used as indicator of platelet aggregation. […] The required concentration for inhibiting by 50% the maximum rate of aggregation varies from 45 to 100 μM.

[5] = molecular target: T4, α2 receptor (Rattus norvegicus, UniProt P22909); test: Displacement of 3H clonidine, plasmic membranes of rat brains; type: binding; conditions: for affinity for the receptor with clonidine (α2): in vitro
T4 construct: plasmic membranes of rat brains; from tissue; host or cells: rat brain plasma membranes
T4 sequence (P22909 1-465): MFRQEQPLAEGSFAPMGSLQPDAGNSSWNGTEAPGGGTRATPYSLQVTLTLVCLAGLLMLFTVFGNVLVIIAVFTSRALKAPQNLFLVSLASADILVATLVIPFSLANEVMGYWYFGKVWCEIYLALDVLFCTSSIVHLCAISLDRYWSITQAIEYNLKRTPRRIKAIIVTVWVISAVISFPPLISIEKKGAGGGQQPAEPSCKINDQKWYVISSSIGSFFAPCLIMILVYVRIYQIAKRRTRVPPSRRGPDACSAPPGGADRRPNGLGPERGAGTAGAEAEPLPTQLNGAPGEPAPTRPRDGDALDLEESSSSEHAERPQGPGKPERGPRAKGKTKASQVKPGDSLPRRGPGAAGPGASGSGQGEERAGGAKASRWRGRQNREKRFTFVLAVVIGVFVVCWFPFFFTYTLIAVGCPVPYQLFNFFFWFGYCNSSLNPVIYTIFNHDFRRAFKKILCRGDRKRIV
Description: as §1
(§5) The tests were made on plasmic membranes of rat brains, in the presence of ^3 H clonidine 1.2×10^-9 M (α2 receptor) and of ^3 H WB4101 (N-[2-(2.6dimethoxyphenoxy)ethyl]1.4benzodioxane-2-methylamine), 0.2×10^-9 M (α1 receptor).

[6] = molecular target: T5, β adrenergic receptors (β1) (Canis lupus familiaris, UniProt P79148); test: Antagonism of the effects of isoprenaline, tachycardia (β1), anaesthetized dog, IV; type: in vivo; conditions: for cardioselectivity β1 - β2 / ED50: dog; for cardioselectivity β1 - β2: isoprenaline antagonism, β1 versus β2; for ED50: read-out: ID50 ISOPRENALINE β1; for cardioselective in vivo (selectively inhibit the cardiac receptors): test with isoprenaline
T5 construct: The dog is anaesthetized using sodium pentobarbital; from tissue; host or cells: whole anaesthetized dog (heart)
T5 sequence (P79148 whole entry): as the sequence (P79148 whole entry) above

[7] = Cardiac frequency and arterial pressure in the anaesthetized dog after intravenous injection; type: in vivo; conditions: i.v. route, anaesthetised dog
Description: as §3, §4

[8] = test system: α1 receptor; test: Displacement of 3H WB 4101, plasmic membranes of rat brains; type: binding; conditions: for affinity for the receptor with WB 4101 (α1): in vitro; for EC50: read-out: EC50 of DISPLACEMENT of 3H WB 4101, rat brain membranes, 3H WB4101 0.2×10^-9 M
Description: as §1, §5

[9] = test system: α adrenergic receptors; test: Antagonism of the effects of noradrenaline (pressure response), anaesthetized dog, IV; type: in vivo; conditions: 50% inhibition of pressure response to noradrenaline
Description: as §3, §4
The antagonism of the products with respect to the vascular effects provoked by the IV administration of noradrenaline on the α adrenergic receptors has been sought. The results presented in Table III are expressed in ID50 : it is the dose (mg/kg) which provokes the inhibition by 50% of the pressure response due to the IV administration of noradrenaline.

[10] = IV, 50% inhibition of isoprenaline hypotension

SMILES | EC50 [1] | ED50 [2, 10] | EC50 [3] | IC50 [4] | inhibition of the platelet response with respect to the ADP [4] | EC50 [5] | cardioselectivity β1 - β2 ([6]; IV) | ED50 ([6]; iv) | cardioselective in vivo (selectively inhibit the cardiac receptors) [6] | reduction in the peripheral arterial pressure [7] | affinity for the receptor with WB 4101 (α1) [8] | EC50 [8] | ID50 NORADRENALINE α [9] | ED50 ([2]; iv) | affinity for the receptor with clonidine (α2) [5] | EC50 ([1]; dog heart membranes, 3H dihydroalprenolol 4×10^-9 M) | EC50 ([3]; rat lung membranes, 3H dihydroalprenolol 4×10^-9 M) | EC50 ([5]; rat brain membranes, 3H clonidine 1.2×10^-9 M) | ED50 ([6]; IV, 50% inhibition of isoprenaline tachycardia)
Cc1ccccc1OCC(O)CNC(C)Cc1c[nH]c2ccccc12 (centres unmarked) [compound 7744] | 31 nM | ≥ 0.3 mg/kg | 52 nM | 45000 to 100000 nM | inhibited the platelet response | 20.5 nM | β1 > β2 (cardioselectivity (β1 >β2)) | 0.1 mg/kg | cardioselective in vivo | reduction in the peripheral arterial pressure | have an affinity | 500 nM | 0.1 to 1 mg/kg |  |  |  |  |  | 
CC(Cc1c[nH]c2ccccc12)NCC(O)COc1ccccc1[N+](=O)[O-] (centres unmarked) [compound 7808] | 28.5 nM |  | 24 nM |  |  | 25 nM | β1 > β2 (cardioselectivity (β1 >β2)) | 0.3 mg/kg | cardioselective in vivo | reduction in the peripheral arterial pressure | have an affinity | 320 nM | 0.3 mg/kg | 1 mg/kg | no affinity |  |  |  | 
CC(Cc1c[nH]c2ccccc12)NCC(O)COc1ccccc1C#N (centres unmarked) [compound 7824] | 13.5 nM |  | 10 nM | 45000 to 100000 nM | inhibited the platelet response |  | β1 ≥ β2 (low cardioselectivity β1 ≥β2) | 0.3 mg/kg |  | reduction in the peripheral arterial pressure | have an affinity | 110 nM | 1 mg/kg | ≥ 0.3 mg/kg | no affinity |  |  |  | 
CC(Cc1c[nH]c2ccccc12)NCC(O)COc1cccc2[nH]ccc12 (centres unmarked) [compound 7874] | 4 nM | 0.01 to 0.03 mg/kg | 8.2 nM | 45000 to 100000 nM | inhibited the platelet response | 20 nM | β1 ≥ β2 (low cardioselectivity β1 ≥β2) | 0.01 mg/kg |  | reduction in the peripheral arterial pressure | have an affinity | 215 nM | > 0.03 mg/kg |  |  |  |  |  | 
Cc1ccccc1OC[C@H](O)CN[C@H](CO)Cc1c[nH]c2ccccc12 [compound 7903] |  | 1 mg/kg |  |  |  |  | β1 < β2 (no cardioselectivity β1 <β2) |  |  | reduction in the peripheral arterial pressure |  | 1.9 nM | 3 mg/kg |  | no affinity | 2050 nM | 2000 nM | 29.5 nM | 3 mg/kg
